Results as given in patent publication US4533553A, “Polycyclic ether antibiotic” (priority 1983, dated 1985).

Tests used:
[1] = tested on: coccidial infections in poultry; assay: activity against coccidial infections in poultry; type: in vivo
Experimental: (§1) Efficacy data for Antibiotic Compound 53,607 and its salts against coccidial infections in chickens was obtained in the following fashion. Groups of 3-5 ten-day old SPF white leghorn cockerel chicks were fed a mash diet containing Antibiotic Compound 53,607 or its sodium and/or potassium salt uniformly dispersed therein. After being on this ration for 24 hours each chick was inoculated per os with oocysts of the particular species of Eimeria being tested. Other groups of 3-5 ten-day old chicks were fed a similar mash diet free of Antibiotic Compound 53,607 or its salts. They were also infected after 24 hours and served as infected controls. Yet other groups of 3-5 ten-day old chicks were fed the mash diet free of Antibiotic Compound 53,607 and were not infected with coccidia. These served as normal controls. The results of treatment were evaluated after five days in the case of E. acervulina, and six days for all other challenges.

[2] = tested on: Eimeria necatrix; assay: efficacy against coccidial infections in chickens; type: in vivo; conditions: for Average degree of Infection: lesion score 0 to 3; for Average degree of Infection / Weight Gain: six days; for Ratio: lesion score treated / infected control
Experimental: as §1
^1 The criteria used to measure anticoccidial activity consisted of
lesion scores of 0 to 4 for E. tenella after J. E. Lynch "A New Method fo
the Primary Evaluation of Anticoccidial Activity." , Am. J. Vet. Res.
22:324-326 (1961); and 0 to 3 for the other species based on modification
of the scoring system devised by J. Johnson and W. H. Reid, "Anticoccidia
drugs. Lesion Scoring Techniques in Battery and Floor Pen Experiments in
Chicks.", Exp. Parasit. 28: 30-36(1970). A constant ratio was established
by dividing the lesion score of each treated group by the lesion score of […]

CC(=CC(C)C1OC2(CCC(C)(C3CCC(C)C4(OC(C5OC(O)(CO)C(C)CC5C)CC4C)O3)O2)CC(O)C1C)C(=O)C(C)CC(C)C(=O)O (centres unmarked) [Antibiotic Compound 53,607]
activity against coccidial infections in poultry [1]: excellent activity
Average degree of Infection ([2]; 25 ppm in diet): 0.6
Ratio ([2]; 25 ppm in diet): 0.33
Weight Gain ([2]; 25 ppm in diet): 111%
Average degree of Infection ([2]; 50 ppm in diet): 0.2
Ratio ([2]; 50 ppm in diet): 0.11
Weight Gain ([2]; 50 ppm in diet): 99%
Average degree of Infection ([2]; 100 ppm in diet): 0.0
Ratio ([2]; 100 ppm in diet): 0.00
Weight Gain ([2]; 100 ppm in diet): 69%
controlling infections ([2]; chickens, diet, 50 to 200 ppm): effective in controlling infections
